The text below walks through data of patent US20130040882A1, “USE OF FIBROBLAST GROWTH FACTOR FRAGMENTS” (NOVARTIS AG, priority 2003, published 2013).

Bounds are passed on as bounds.

Series [1] relates to luteinising hormone and follicle-stimulating hormone genes in the pituitary gland. Description: Gene expression (HGU133A) in the pituitary gland of ovariectomized monkeys treated with estradiol, tamoxifen or raloxifene. Format: in vivo, cynomolgus monkeys (Macaca fascicularis). The conditions noted are these: for Fold change relative to OVX: Follicle stimulating hormone / Fold change relative to OVX: Luteinising hormone / Fold expression change to SHAM control: Follicle stimulating hormone / Fold expression change to SHAM control: Luteinising hormone: pituitary gland. The protocol:
Female sexually mature cynomolgus monkeys (Macaca fascicularis obtained from R. C. Hartelust B V, Tilburg, the Netherlands) approximately 48 months old were subjected to surgery (ovarectomy [OVX] or sham) 10 weeks prior to treatment and were treated for parasitic arthropods and helminthes, subjected to a tuberculin testing, and acclimated to the treatment facility for at least 14 days before beginning treatment.
Surgical Procedures. The ovariectomized cynomolgus monkey (Macaca fascicularis), which has been validated as a useful model predictive of outcomes in human clinical trials of estrogen and SERMs (Cline J M et al., Toxicol Pathol. 29:84-90 (2001)), was used as a model of estrogen deficiency. Animals were ovariectomized approximately 10 weeks before the first day of treatment. The ovaries were removed following anesthesia with a combined intramuscular injection of xylazine (Rompun®: 0.4 mL/animal, Bayer Pharma Division Sante Animale, Puteaux, France) and ketamine hydrochloride (Imalgéne®: 0.6 mL/kg, Mérial, Lyon, France). Sham-operated animals were subjected to the same surgical procedure, except for the removal of ovaries.
Ovariectomized and sham-operated animals were divided into groups of 4 and treated as outlined below.
Gene expression was determined in the pituitary and uterus at the end of drug therapy. Tissues to be analyzed (pituitary glands and uterus) were excised, snap frozen in liquid nitrogen, and stored at −80° C. until RNA extraction was performed.
Total RNA was obtained by acid guanidinium isothiocyanate-phenol-chloroform extraction (Trizol; Invitrogen Life Technologies, San Diego, Calif., USA) and purified on an affinity resin column (RNeasy; Qiagen, Hilden, Germany) according to manufacturer instructions. […] Lockhart D J, Dong H, Byrne M C, et al. Nat. Biotechnol. 1996; 14:1675-1680.
Previous studies have proven the validity of cross-species DNA chip analysis (Hacia J G et al. Nat Genet. 18:155-158 (1998)), therefore, the human gene expression probe arrays HGU133A (Affymetrix, Santa Clara, Calif., USA) containing 22,283 probe sets interrogating primarily annotated human genes were used. One GeneChip was used per tissue, per animal. The resulting image files (.dat files) were processed using the Microarray Analysis Suite 5 (MAS5) software (Affymetrix, Inc.). Tab-delimited files were obtained containing data regarding signal intensity (Signal) and categorical expression level measurement (Absolute Call).

The subject of a further series is uterine gene expression. Description: Ranking of drug activity according to uterine GEP (GEP scoring axis, PCA; estrogenic potency score). It counts as in vivo, cynomolgus monkeys (Macaca fascicularis). The text has this: To define a reference axis representing the desired pharmacological/toxicological action, we used a priori knowledge of 2 groups representing or approximating the extremes of the condition under study. These consisted of the OVX group (OVX untreated animals representing the one extreme) and OVX+estradiol (OVX animals treated with estradiol, an agent know to exercise a well-defined action, representing the other extreme). These two groups were used to quantitatively scale the axis. Other compounds were then positioned on this axis whereby the drugs could be ranked with regard to specific aspects of a pharmacological/toxicological action.
Generally, the data derived from an individual microarray, proteomic, or metabolite profiling experiment can be considered as a fingerprint. […] Thus, selection and elimination of the appropriate features is an important aspect of this methodology and the quantitative nature of this approach depends on the features used to define the axis of drug action.
In the case of a well-defined condition, it is possible to invoke a priori knowledge on the selection of features. If the molecular biology of the specific drug action is known, the features (e.g. genes, metabolites) to be used for the definition of the axis can be defined a priori. In the case of a less-well-defined condition, it is possible to use univariate filters (in this case, gene intensity >50, ≧1.5-fold change in expression vs. controls [OVX], and statistical significance and statistical methods to identify and exclude non-informative features.
Issues of transformation, centering (variable-wise), and scaling of the data were considered. In the case of microarrays, the data were log10-transformed and probe set-wise centered. Generally, no scaling was applied. When using only a small number of biologically identified features, these were scaled to unit variance.
To calculate the axis of drug action, a principal component axis (PCA) was performed using only the 2 treatment groups that were at the extremes (the untreated OVX animals vs. the estrodiol-treated OVX animals). Massart D L et al., Handbook for Chemometrics and Qualimetrics, Part a. (Elsevier; 1997); Jolliffe I T. Principal Component Analysis. 2nd Edition (Springer; New York, N.Y., 2002). Only 1 principal component (PC) was calculated, which was a weighted linear combination of all features in the input data pointing in the direction of maximum variance. The weights of the probe sets in this linear combination were called “loadings” and their absolute value is a measure of their importance in explaining the difference between the 2 groups. Every measurement in the experiment (e.g. microarray) could then be represented by its coordinate (score) on the PC. Alternatively, to obtain an even better separation between the groups, the PLS-DA (Partial-Least-Squares Discriminate Analysis) method with a 0/1 dummy variable as response vector was used. […] Massart D L et al., Handbook of Chemometrics and Qualimetrics, Part b. (Elsevier; 1997). The next step was identification of the features that were important for the definition of the axis. This was based on the magnitude of their loadings and their statistical significance using error estimates based on cross-validation and/or normal probability plots of the loadings. Hunter W G & Hunter J S. Statistics for Experimenters: an Introduction to Design, Data Analysis, and Model Building. 1st Edition (Wiley; 1978). This enabled calculation of a new PCA model using only the important features.
If a pharmacological or toxicological action affected multiple biochemical pathways that were represented by grossly different numbers of features in the measurement, block scaling was used. Eriksson L et al., Multi-and Megavariate Data Analysis-Principles and Applications. (Umetrics Academy; 2001). This attributed the same influence to all pathways (groups of features) in the calculation of the PCA model. […]

The next series concerns retinal neuronal layers. The protocol: The total thickness of the outer nuclear layer, the inner nuclear layer and the ganglion cell layer is measured using a standardized magnification after paraffin embedding and hematoxylin and eosin (HE)-staining. Three sections of each eye are measured at three locations each. […] Sections are encoded for evaluation.
Series [2] in a line: Routine clinical and biochemical observations in FGF23CTP-treated monkeys. Format: in vivo, cynomolgus monkey. The note with it: 100 μg/day sc, two weeks.
Setting [3] is: 123 genes thought to have a role in uterine function.
Where [4] appears, read: 225 genes, statistically significant >1.5-fold changes.
Where [5] appears, read: 673 genes, >1.5-fold change disregarding statistical significance.
Setting [6] is: right eye (FGF23CTP), average of all measurements of three animals, x200 magnification.

On to `C#C[C@]1(O)CC[C@H]2[C@@H]3CCc4cc(O)ccc4[C@H]3CC[C@@]21C` [EE], for which, in series [1], the “Fold change relative to OVX: Follicle stimulating hormone” value was less than 0.1 fold and the “Fold change relative to OVX: Luteinising hormone” value is 0.1 fold. Further, in series [1] (OVX monkeys), the “Fold expression change to SHAM control: Follicle stimulating hormone” value stood at 0.1 fold and the “Fold expression change to SHAM control: Luteinising hormone” value is 0.5 fold.
As for `O=C(c1ccc(OCCN2CCCCC2)cc1)c1c(-c2ccc(O)cc2)sc2cc(O)ccc12` [raloxifene], in the series with uterine gene expression (setting [3]), the “Estrogenic score (GEP score; OVX 0, estradiol 100)” value turned out to be 20. Also, the “Estrogenic score (GEP score; OVX 0, estradiol 100)” value with uterine gene expression (setting [4]) was 23. Further, the “Estrogenic score (GEP score; OVX 0, estradiol 100)” value with uterine gene expression (setting [5]) stood at 34. The “Estrogenic scores in specific gene groups (categories)” value with uterine gene expression (subanalysis per gene class) is reported as −11 to 32. Besides, in series [1], the “Fold change relative to OVX: Follicle stimulating hormone” value amounted to 0.8 fold and the “Fold change relative to OVX: Luteinising hormone” value was 1.3 fold. In series [1] (OVX monkeys), the “Fold expression change to SHAM control: Follicle stimulating hormone” value was found to be 5.2 fold and the “Fold expression change to SHAM control: Luteinising hormone” value came to 9.8 fold.
On to `CC/C(=C(\c1ccccc1)c1ccc(OCCN(C)C)cc1)c1ccccc1` [tamoxifen], for which the “Estrogenic score (GEP score; OVX 0, estradiol 100)” value with uterine gene expression (setting [3]) is listed as 69. The “Estrogenic score (GEP score; OVX 0, estradiol 100)” value in the series with uterine gene expression (setting [4]) is 59. Further, the “Estrogenic score (GEP score; OVX 0, estradiol 100)” value in the series with uterine gene expression (setting [5]) was determined as 71. In addition, in series [1] (OVX monkeys), the “Decrease of FSH transcripts in the pituitary gland” value is recorded as 2.7 fold, the “Decrease of LH transcripts in the pituitary gland” value is 2.4 fold, the “Fold expression change to SHAM control: Follicle stimulating hormone” value was 2.3 fold and the “Fold expression change to SHAM control: Luteinising hormone” value is on record as 3.2 fold. Besides, in series [1], the “Fold change relative to OVX: Follicle stimulating hormone” value is given as 0.4 fold and the “Fold change relative to OVX: Luteinising hormone” value was 0.4 fold.

B1: FGF23CTP: unique 75-mer COOH-terminal peptide of FGF-23, SEQ ID NO: 2 (peptide, listed as Homo sapiens)
chain: HTRSAEDDSERDPLNVLKPRARMTPAPASCSQELPSAEDNSPMASDPLGVVRGGRVNTHAGGTGPEGCRPFAKFI
On to B1, for which, in the series on retinal neuronal layers (five days after injection), the “Thickness of the inner nuclear layer, outer nuclear layer, ganglion cell layer vs PBS” value is recorded as “no marked difference”. Besides, in the series with retinal neuronal layers (setting [6]), the “Ganglion cell layer thickness, average” value turned out to be 2.25 mm; the “Inner nuclear layer thickness, average” value came to 6 mm; the “Outer nuclear layer thickness, average” value amounted to 10.63 mm. The “Neuronal damage in the eye” value in the series with retinal neuronal layers (three animals, five days after injection) was “not to induce any neuronal damage”. For the same molecule, in series [2], the “Effect on phosphate metabolism” value is listed as “no effect” and the “Routine clinical or biochemical changes” value was “No routine clinical or biochemical changes”.
